From ChEMBL document CHEMBL5143570, “Development of naringenin-O-carbamate derivatives as multi-target-directed liagnds for the treatment of Alzheimer's disease” (Bioorg Med Chem Lett, 2022)
Active and inactive are the calls of the source. No cut-off for these calls is given here.

Key:
[1] = Antioxidant activity assessed as trolox equivalent of ORAC radical scavenging activity by ORAC-FL assay; type: functional
Acetylcholinesterase [2] = target: T1, Acetylcholinesterase (Rattus norvegicus, UniProt P37136); test: Inhibition of rat cortex AChE using acetylthiocholine as substrate incubated for 15 mins by DTNB reagent based Ellman's method; type: tissue-based
T1 sequence (P37136 whole entry): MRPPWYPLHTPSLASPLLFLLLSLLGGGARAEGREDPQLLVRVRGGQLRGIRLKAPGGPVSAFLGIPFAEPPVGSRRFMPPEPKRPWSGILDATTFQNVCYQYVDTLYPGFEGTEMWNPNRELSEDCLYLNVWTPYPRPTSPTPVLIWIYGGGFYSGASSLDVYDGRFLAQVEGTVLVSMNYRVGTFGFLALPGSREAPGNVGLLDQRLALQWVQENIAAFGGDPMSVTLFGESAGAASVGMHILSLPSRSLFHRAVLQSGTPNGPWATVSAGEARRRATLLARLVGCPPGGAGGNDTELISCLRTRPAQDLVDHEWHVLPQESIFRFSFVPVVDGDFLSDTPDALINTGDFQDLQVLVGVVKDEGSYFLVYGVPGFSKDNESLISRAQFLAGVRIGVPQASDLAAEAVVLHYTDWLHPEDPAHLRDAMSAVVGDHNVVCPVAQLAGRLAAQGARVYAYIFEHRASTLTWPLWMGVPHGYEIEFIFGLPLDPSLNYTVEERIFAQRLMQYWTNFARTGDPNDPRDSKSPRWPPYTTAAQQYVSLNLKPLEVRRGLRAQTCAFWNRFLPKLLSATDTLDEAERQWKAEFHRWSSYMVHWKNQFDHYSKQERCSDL

Butyrylcholinesterase = Butyrylcholinesterase (Rattus norvegicus, UniProt Q9JKC1); test: Inhibition of rat serum Butyrylcholine esterase using butyrylthiocholine as substrate incubated for 15 mins by DTNB reagent based Ellman's method; type: cell-free
Rattus norvegicus = species on record: Rattus norvegicus; test: Selectivity index, ratio of IC50 for inhibition of rat serum butyrylcholine esterase to IC50 for inhibition of rat cortex AChE
Acetylcholinesterase [3] = target: T2, Acetylcholinesterase (Homo sapiens, UniProt P22303); test: Inhibition of human erythrocyte AChE using acetylthiocholine as substrate incubated for 15 mins by DTNB reagent based Ellman's method; type: cell-based
Cholinesterase = Cholinesterase (Homo sapiens, UniProt P06276); test: Inhibition of human serum BuChE using butyrylthiocholine as substrate incubated for 15 mins by DTNB reagent based Ellman's method; type: cell-free
[4] = target: Amyloid-beta precursor protein (Homo sapiens) (UniProt P05067); test: Inhibition of amyloid beta (1 to 42 ) (unknown origin) self-induced aggregation at 25 uM by thioflavin-T fluorescence method relative to control
Acetylcholinesterase [5] = target: T2, Acetylcholinesterase; test: Pseudo-irreversible inhibition of human AChE assessed as restoration of enzyme activity at 0.1 time of IC50 concentration incubated for 120 mins by dilution method relative to control; design: scale not given: the % may be the effect or the level left
[6] = target: Amyloid-beta precursor protein (Homo sapiens) (UniProt P05067); test: Inhibition of amyloid beta (1 to 42) (unknown origin) self-induced fibril formation at 25 uM incubated for 24 hrs by transmission electron microscopic analysis
[7] = Cytotoxicity against mouse HT-22 cells assessed as reduction in cell viability by MTT assay; type: toxicity, cell-based
[8] = Effect on tau protein expression in pRK5-GFP-Tau plasmid transfected mouse HT-22 cells assessed as reduction in fluorescence intensity at 5 uM incubated for 24 hrs by fluorescence microscopic analysis (reference value: 36.8); type: functional
[9] = Effect on tau protein expression in pRK5-GFP-Tau plasmid transfected mouse HT-22 cells assessed as reduction in fluorescence intensity at 10 uM incubated for 24 hrs by fluorescence microscopic analysis (reference value: 36.8); type: functional
[10] = Effect on tau protein expression in pRK5-GFP-Tau plasmid transfected mouse HT-22 cells assessed as reduction in fluorescence intensity at 20 uM incubated for 24 hrs by fluorescence microscopic analysis (reference value: 36.8); type: functional
HT-22 [11] = test: Effect on tau protein expression in pRK5-GFP-Tau plasmid transfected mouse HT-22 cells assessed as fluorescence intensity by measuring decrease in GFP level at 5 to 20 uM incubated for 24 hrs by western blot analysis; type: functional, cell-based; conditions: dose 5-20 µM
[12] = Effect on tau protein expression in pRK5-GFP-Tau P301L plasmid transfected mouse HT-22 cells assessed as reduction in fluorescence intensity at 5 uM by fluorescence microscopic analysis (reference value: 35.0); type: functional
[13] = Effect on tau protein expression in pRK5-GFP-Tau P301L plasmid transfected mouse HT-22 cells assessed as reduction in fluorescence intensity at 10 uM by fluorescence microscopic analysis (reference value: 35.0); type: functional
[14] = Effect on tau protein expression in pRK5-GFP-Tau P301L plasmid transfected mouse HT-22 cells assessed as reduction in fluorescence intensity at 20 uM by fluorescence microscopic analysis (reference value: 35.0); type: functional
[15] = Effect on APP protein expression in pEGFP-N1-APP plasmid transfected mouse HT-22 cells assessed as decrease in fluorescence intensity at 5 uM incubated for 24 hrs by fluorescence microscopic analysis (reference value: 30.7); type: functional
[16] = Effect on APP protein expression in pEGFP-N1-APP plasmid transfected mouse HT-22 cells assessed as decrease in fluorescence intensity at 10 uM incubated for 24 hrs by fluorescence microscopic analysis (reference value: 30.7); type: functional
[17] = Effect on APP protein expression in pEGFP-N1-APP plasmid transfected mouse HT-22 cells assessed as decrease in fluorescence intensity at 20 uM incubated for 24 hrs by fluorescence microscopic analysis (reference value: 30.7); type: functional
HT-22 [18] = test: Effect on APP protein expression in pEGFP-N1-APP plasmid transfected mouse HT-22 cells assessed as fluorescence intensity by measuring decrease in GFP level incubated for 24 hrs by western blot analysis; type: functional, cell-based; conditions: dose 5-20 µM, DDE = dose-dependent effect
PC-12 [19] = test: Cytotoxicity against rat PC-12 cells assessed as reduction in cell viability measured upto 40 uM incubated for 72 hrs by MTT assay; type: toxicity, cell-based; conditions: pc-12, 72 h
PC-12 [20] = test: Neuroprotective activity against H2O2-induced cytotoxicity in rat PC-12 cells assessed as increase in cell viability at 5 uM by MTT assay relative to control; type: functional
PC-12 [21] = test: Neuroprotective activity against H2O2-induced cytotoxicity in rat PC-12 cells assessed as increase in cell viability at 10 uM by MTT assay relative to control; type: functional
Homo sapiens = species on record: Homo sapiens; test: Selectivity index, ratio of IC50 for inhibition of human serum BuChE to IC50 for inhibition of human erythrocyte AChE
PC-12 [22] = test: Neuroprotective activity against H2O2-induced cytotoxicity in rat PC-12 cells assessed as increase in cell viability at 100 uM by MTT assay relative to control; type: functional, cell-based

T2 sequence (P22303 whole entry): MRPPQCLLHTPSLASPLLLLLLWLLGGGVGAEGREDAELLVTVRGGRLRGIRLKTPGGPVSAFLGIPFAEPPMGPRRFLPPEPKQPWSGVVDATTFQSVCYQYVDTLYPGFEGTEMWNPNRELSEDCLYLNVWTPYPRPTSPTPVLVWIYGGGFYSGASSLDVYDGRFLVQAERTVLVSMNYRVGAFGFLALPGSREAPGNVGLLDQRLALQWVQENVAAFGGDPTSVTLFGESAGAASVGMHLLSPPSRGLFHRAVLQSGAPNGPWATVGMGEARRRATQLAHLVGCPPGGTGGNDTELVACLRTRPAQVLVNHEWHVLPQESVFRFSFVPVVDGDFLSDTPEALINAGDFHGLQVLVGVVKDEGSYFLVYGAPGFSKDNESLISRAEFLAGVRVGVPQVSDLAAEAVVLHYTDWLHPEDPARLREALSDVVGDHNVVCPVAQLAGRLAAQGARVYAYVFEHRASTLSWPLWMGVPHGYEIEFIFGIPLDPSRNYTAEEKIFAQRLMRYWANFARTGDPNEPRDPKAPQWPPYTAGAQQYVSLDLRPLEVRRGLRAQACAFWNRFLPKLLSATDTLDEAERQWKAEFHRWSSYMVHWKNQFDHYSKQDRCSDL
Butyrylcholinesterase, sequence (Q9JKC1 whole entry): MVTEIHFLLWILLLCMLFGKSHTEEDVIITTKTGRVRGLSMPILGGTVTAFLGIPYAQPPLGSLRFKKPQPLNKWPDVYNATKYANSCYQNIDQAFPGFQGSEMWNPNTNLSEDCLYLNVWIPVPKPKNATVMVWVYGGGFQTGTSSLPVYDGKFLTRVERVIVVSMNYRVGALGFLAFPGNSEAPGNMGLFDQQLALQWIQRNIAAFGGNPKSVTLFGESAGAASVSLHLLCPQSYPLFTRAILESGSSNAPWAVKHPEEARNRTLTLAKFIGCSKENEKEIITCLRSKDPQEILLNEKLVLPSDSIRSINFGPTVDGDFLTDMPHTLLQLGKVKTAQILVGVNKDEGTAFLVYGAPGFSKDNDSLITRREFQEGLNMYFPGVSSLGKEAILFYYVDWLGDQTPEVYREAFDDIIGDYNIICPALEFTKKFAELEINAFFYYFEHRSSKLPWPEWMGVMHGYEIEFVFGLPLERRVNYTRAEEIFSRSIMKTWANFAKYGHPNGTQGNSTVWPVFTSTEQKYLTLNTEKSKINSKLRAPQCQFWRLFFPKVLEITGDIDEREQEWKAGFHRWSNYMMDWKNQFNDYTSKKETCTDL
Cholinesterase, sequence (P06276 whole entry): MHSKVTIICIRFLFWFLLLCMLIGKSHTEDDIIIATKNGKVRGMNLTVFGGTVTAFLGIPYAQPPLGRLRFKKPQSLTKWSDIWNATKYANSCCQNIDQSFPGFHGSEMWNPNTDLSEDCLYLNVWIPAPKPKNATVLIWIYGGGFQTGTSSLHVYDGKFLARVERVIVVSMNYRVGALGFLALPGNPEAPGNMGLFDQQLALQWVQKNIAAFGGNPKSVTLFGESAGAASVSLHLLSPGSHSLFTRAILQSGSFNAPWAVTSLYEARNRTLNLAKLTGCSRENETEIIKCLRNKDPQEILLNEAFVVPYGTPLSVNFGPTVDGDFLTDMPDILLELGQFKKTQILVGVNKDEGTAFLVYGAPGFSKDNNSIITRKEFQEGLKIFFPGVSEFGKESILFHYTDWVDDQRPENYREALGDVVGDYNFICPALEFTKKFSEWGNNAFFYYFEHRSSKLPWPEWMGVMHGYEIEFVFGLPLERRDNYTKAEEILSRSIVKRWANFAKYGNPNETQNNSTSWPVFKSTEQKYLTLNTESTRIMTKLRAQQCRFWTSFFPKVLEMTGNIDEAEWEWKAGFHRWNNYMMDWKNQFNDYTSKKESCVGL
Amyloid-beta precursor protein (Homo sapiens), sequence (P05067 whole entry): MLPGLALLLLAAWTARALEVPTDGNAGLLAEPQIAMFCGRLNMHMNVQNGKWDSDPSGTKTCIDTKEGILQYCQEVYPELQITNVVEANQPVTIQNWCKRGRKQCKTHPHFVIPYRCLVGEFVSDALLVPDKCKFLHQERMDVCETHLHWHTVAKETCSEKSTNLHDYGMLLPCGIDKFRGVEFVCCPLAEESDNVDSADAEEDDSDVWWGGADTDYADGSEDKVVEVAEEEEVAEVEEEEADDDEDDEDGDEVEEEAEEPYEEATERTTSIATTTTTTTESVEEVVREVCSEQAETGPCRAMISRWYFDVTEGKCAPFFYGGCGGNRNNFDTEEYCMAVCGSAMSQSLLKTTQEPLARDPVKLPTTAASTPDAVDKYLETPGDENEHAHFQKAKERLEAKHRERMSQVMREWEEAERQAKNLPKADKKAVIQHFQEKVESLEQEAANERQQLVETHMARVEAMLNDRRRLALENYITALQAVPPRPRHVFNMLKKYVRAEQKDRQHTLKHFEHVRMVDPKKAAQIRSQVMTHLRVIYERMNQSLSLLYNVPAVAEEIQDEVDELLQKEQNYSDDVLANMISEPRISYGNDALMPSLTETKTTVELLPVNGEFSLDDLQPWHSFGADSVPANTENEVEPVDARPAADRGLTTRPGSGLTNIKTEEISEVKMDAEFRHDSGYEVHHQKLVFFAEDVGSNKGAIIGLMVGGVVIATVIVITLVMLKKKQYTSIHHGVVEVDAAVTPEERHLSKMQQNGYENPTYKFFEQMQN

## CCN(C)C(=O)Oc1cc(O)c2c(c1)OC(c1ccc(O)cc1)CC2=O (stereo not given)
[1]
  Activity: 2.7
Acetylcholinesterase [2]
  IC50: 11.6 µM
Butyrylcholinesterase
  IC50: 28.2 µM
Rattus norvegicus
  Ratio IC50: 2.4

## O=c1c(-c2ccc(O)cc2)coc2cc(O)cc(O)c12 [GENISTEIN]
[1]
  Activity: 6.2
Acetylcholinesterase [2]
  IC50: > 50 µM
Butyrylcholinesterase
  IC50: > 50 µM

## CCN(C)C(=O)Oc1ccc(C2CC(=O)c3c(OC(=O)N(C)CC)cc(OC(=O)N(C)CC)cc3O2)cc1 (stereo not given)
[1]
  Activity: 0.2
Acetylcholinesterase [2]
  IC50: 6.7 µM
Butyrylcholinesterase
  IC50: 20.2 µM
Acetylcholinesterase [3]
  IC50: 10.6 µM
Cholinesterase
  IC50: 24.5 µM
[4]
  inhibition: 42.1%
Acetylcholinesterase [5]
  Activity: 75.9%
[6]
  inhibition: Active
[7]
  IC50: 215 µM
[8]
  Flu intensity: 23.7
[9]
  Flu intensity: 20.7
[10]
  Flu intensity: 6.48
HT-22 [11]
  Activity: Active
[12]
  Flu intensity: 18.7
[13]
  Flu intensity: 17.6
[14]
  Flu intensity: 16
[15]
  Flu intensity: 22.3
[16]
  Flu intensity: 22.1
[17]
  Flu intensity: 20.7
HT-22 [18]
  Activity: Dde
PC-12 [19]
  Activity: Non-Toxic
PC-12 [20]
  Activity: 59.3%
PC-12 [21]
  Activity: 64.1%

## O=c1cc(-c2ccc(O)cc2)oc2cc(O)cc(O)c12 [APIGENIN]
[1]
  Activity: 5.5
Acetylcholinesterase [2]
  IC50: > 50 µM
Butyrylcholinesterase
  IC50: > 50 µM

## CON(C)C(=O)Oc1ccc(-c2coc3cc(OC(=O)N(C)OC)cc(O)c3c2=O)cc1
[1]
  Activity: 1
Acetylcholinesterase [2]
  IC50: 13.5 µM
Butyrylcholinesterase
  IC50: 27.1 µM
Rattus norvegicus
  Ratio IC50: 2

## O=C1CC(c2ccc(O)cc2)Oc2cc(O)cc(O)c21 (stereo not given)
[1]
  Activity: 5.1
Acetylcholinesterase [2]
  IC50: > 50 µM
Butyrylcholinesterase
  IC50: > 50 µM

## CN(C)C(=O)Oc1ccc(C2CC(=O)c3c(O)cc(OC(=O)N(C)C)cc3O2)cc1 (stereo not given)
[1]
  Activity: 0.9
Acetylcholinesterase [2]
  IC50: 14.2 µM
Butyrylcholinesterase
  IC50: 26.5 µM

## CCN(CC)C(=O)Oc1cc(O)c2c(c1)OC(c1ccc(O)cc1)CC2=O (stereo not given)
[1]
  Activity: 2.5
Acetylcholinesterase [2]
  IC50: 15.1 µM
Butyrylcholinesterase
  IC50: 26.7 µM
Rattus norvegicus
  Ratio IC50: 1.8

## CCN(C)C(=O)Oc1ccc(-c2cc(=O)c3c(OC(=O)N(C)CC)cc(OC(=O)N(C)CC)cc3o2)cc1
[1]
  Activity: 0.2
Acetylcholinesterase [2]
  IC50: 6.9 µM
Butyrylcholinesterase
  IC50: 14.3 µM
Rattus norvegicus
  Ratio IC50: 2.1
Acetylcholinesterase [3]
  IC50: 12.3 µM
Cholinesterase
  IC50: 20.6 µM
Homo sapiens
  Ratio IC50: 1.7

## CCN(C)C(=O)Oc1ccc(-c2cc(=O)c3c(O)cc(OC(=O)N(C)CC)cc3o2)cc1
[1]
  Activity: 1.3
Acetylcholinesterase [2]
  IC50: 5.7 µM
Butyrylcholinesterase
  IC50: 15.6 µM
Rattus norvegicus
  Ratio IC50: 2.7
Acetylcholinesterase [3]
  IC50: 7.9 µM
Cholinesterase
  IC50: 18.7 µM
Homo sapiens
  Ratio IC50: 2.4

## O=C1CC(c2ccc(OC(=O)N3CCOCC3)cc2)Oc2cc(OC(=O)N3CCOCC3)cc(O)c21 (stereo not given)
[1]
  Activity: 1
Acetylcholinesterase [2]
  IC50: 11.3 µM
Butyrylcholinesterase
  IC50: 23.6 µM
Rattus norvegicus
  Ratio IC50: 2.1

## CCN(C)C(=O)Oc1ccc(-c2coc3cc(OC(=O)N(C)CC)cc(O)c3c2=O)cc1
[1]
  Activity: 1.2
Acetylcholinesterase [2]
  IC50: 11.2 µM
Butyrylcholinesterase
  IC50: 29.3 µM
Rattus norvegicus
  Ratio IC50: 2.6

## VITAMIN E
PC-12 [22]
  Activity: 67.3%

## O=C1CC(c2ccc(OC(=O)N3CCCC3)cc2)Oc2cc(OC(=O)N3CCCC3)cc(O)c21 (stereo not given)
[1]
  Activity: 1.1
Acetylcholinesterase [2]
  IC50: 14.5 µM
Butyrylcholinesterase
  IC50: 19.8 µM
Rattus norvegicus
  Ratio IC50: 1.4

## CCN(C)C(=O)Oc1ccc(-c2coc3cc(OC(=O)N(C)CC)cc(OC(=O)N(C)CC)c3c2=O)cc1
[1]
  Activity: 0.3
Acetylcholinesterase [2]
  IC50: 8.7 µM
Butyrylcholinesterase
  IC50: 16.9 µM
Rattus norvegicus
  Ratio IC50: 1.9

## CCN(C)C(=O)Oc1cccc([C@H](C)N(C)C)c1
Acetylcholinesterase [5]
  Activity: 76.3%

## O=C1CC(c2ccc(OC(=O)N(c3ccccc3)c3ccccc3)cc2)Oc2cc(OC(=O)N(c3ccccc3)c3ccccc3)cc(O)c21 (stereo not given)
[1]
  Activity: 1.1
Acetylcholinesterase [2]
  IC50: 18.2 µM
Butyrylcholinesterase
  IC50: 25.2 µM
Rattus norvegicus
  Ratio IC50: 1.4

## CON(C)C(=O)Oc1ccc(-c2cc(=O)c3c(O)cc(OC(=O)N(C)OC)cc3o2)cc1
[1]
  Activity: 1.1
Acetylcholinesterase [2]
  IC50: 9.3 µM
Butyrylcholinesterase
  IC50: 19.7 µM
Rattus norvegicus
  Ratio IC50: 2.1

## CON(C)C(=O)Oc1ccc(C2CC(=O)c3c(O)cc(OC(=O)N(C)OC)cc3O2)cc1 (stereo not given)
[1]
  Activity: 1.2
Acetylcholinesterase [2]
  IC50: 9.9 µM
Butyrylcholinesterase
  IC50: 18.1 µM
Rattus norvegicus
  Ratio IC50: 1.8

## CCN(CC)C(=O)Oc1ccc(C2CC(=O)c3c(O)cc(OC(=O)N(CC)CC)cc3O2)cc1 (stereo not given)
[1]
  Activity: 1.1
Acetylcholinesterase [2]
  IC50: 10.7 µM
Butyrylcholinesterase
  IC50: 22.4 µM
Rattus norvegicus
  Ratio IC50: 2.1
